Results reported in article PMC7496096, “Functional Characterisation of ClpP Mutations Conferring Resistance to Acyldepsipeptide Antibiotics in Firmicutes” (Chembiochem, 2020).
In brackets after ≈: the same amount, converted by molar mass. Like-named read-outs stand apart in the source and are kept apart here. Positions of bridges follow the written chain, without caps; N, C: chain ends. Non-standard residues stand in square brackets, D forms with d. Residues, ends and D or L forms follow the SMILES beside them. *: point of attachment. Octatrienoyl(2E,4E,6E) = C/C=C/C=C/C=C/C(=O)*; Pro(4R-Me) = C[C@H]1CN[C@H](C(=O)O)C1; NMeA = CN[C@@H](C)C(=O)O; X1 = CCC/C=C/C(=O)*

Legend:
S. aureus ATCC 29213 [1] = assay: microbe, parasite or virus in culture; assay type: cell-based, Staphylococcus aureus; conditions: broth microdilution, Mueller-Hinton broth (without cation adjustment), CLSI, inoculum 5×10^4 CFU mL^−1, wild type
Experimental: (§1) Determination of antibacterial activity: ADEP1 was purified from the culture supernatant of S. hawaiiensis NRRL 15010 as described.4 ADEPs 2, 4, 7, 9 were custom synthesised by EMC Microcollections, Tübingen, or provided by AiCuris, Wuppertal, Germany. The minimal inhibitory concentration (MIC) was determined by broth microdilution in Mueller‐Hinton broth (without cation adjustment) according to the guidelines of the Clinical Laboratory Standards Institute (CLSI).69 The inoculum was set to 5×10^4 CFU mL^−1 to allow some distance to the determined spontaneous resistance frequencies. […] All other ADEPs were used from DMSO stock solutions kept at −20 °C.

S. aureus 133 [2] = assay: microbe, parasite or virus in culture; assay type: cell-based, Staphylococcus aureus; conditions: broth microdilution, Mueller-Hinton broth (without cation adjustment), CLSI, inoculum 5×10^4 CFU mL^−1, wild type
Experimental: as §1

B. subtilis RC14 = assay type: cell-based, Bacillus subtilis; conditions: resistant clone of B. subtilis 168; ClpP G107→S (ClpP core)
Experimental: as §1
(§2) Screening for ADEP‐resistant mutants and determination of resistance rates: Single colonies of wild‐type strains grown on Mueller‐Hinton agar plates overnight were suspended in sterile saline and a final inoculum of 5×10^6 cells was spread on plates supplemented with different ADEP congeners at 4× and 10× the MIC. For B. subtilis strain 3xclpP, ADEP7‐containing Mueller‐Hinton agar plates were additionally supplemented with 1 mM IPTG. Resistant colonies were counted after 24 h at 37 °C and colonies were randomly chosen for MIC determinations and sequencing. Mutations in the clpP gene of the respective isolated mutants were analysed by amplifying the clpP gene (and upstream promoter region) by PCR and sequencing of the resulting PCR amplicons (LGC genomics). Sequencing data were analysed by using SnapGene software (GSL Biotech).

B. subtilis RC19 = assay type: cell-based, Bacillus subtilis; conditions: resistant clone of B. subtilis 168; ClpP Y183→C (C-terminus; α7)
Experimental: as §1, §2

B. subtilis RC16 = assay type: cell-based, Bacillus subtilis; conditions: resistant clone of B. subtilis 168; ClpP I44→F (ClpP core; α2)
Experimental: as §1, §2

B. subtilis RC15 = assay type: cell-based, Bacillus subtilis; conditions: resistant clone of B. subtilis 168; ClpP G69→S (ClpP core)
Experimental: as §1, §2

B. subtilis RC18 = assay type: cell-based, Bacillus subtilis; conditions: resistant clone of B. subtilis 168; ClpP L190→S, ADEP binding site
Experimental: as §1, §2

B. subtilis RC17 = assay type: cell-based, Bacillus subtilis; conditions: resistant clone of B. subtilis 168; ClpP D172→V, active site
Experimental: as §1, §2

B. subtilis RC13 = assay type: cell-based, Bacillus subtilis; conditions: resistant clone of B. subtilis 168; ClpP I93→STOP, premature stop
Experimental: as §1, §2

S. pneumoniae RC2 = assay type: cell-based, Streptococcus pneumoniae; conditions: resistant clone of S. pneumoniae G9A; ClpP START→I, no expression
Experimental: as §1, §2

S. pneumoniae RC1 = assay type: cell-based, Streptococcus pneumoniae; conditions: resistant clone of S. pneumoniae G9A; ClpP A94→G (ClpP core; β4)
Experimental: as §1, §2

S. pneumoniae RC3 = assay type: cell-based, Streptococcus pneumoniae; conditions: resistant clone of S. pneumoniae G9A; ClpP R171→H, oligomerisation sensor
Experimental: as §1, §2

S. pyogenes Wacker = assay type: cell-based, Streptococcus pyogenes; conditions: broth microdilution, Mueller-Hinton broth; wildtype
Experimental: as §1

E. faecalis 27159 = assay type: cell-based, Enterococcus faecalis; conditions: broth microdilution, Mueller-Hinton broth; wildtype
Experimental: as §1

E. faecalis RC6 = assay type: cell-based, Enterococcus faecalis; conditions: resistant clone of E. faecalis 27159; ClpP R147→H (equatorial interface; α5)
Experimental: as §1, §2

E. faecalis RC8 = assay type: cell-based, Enterococcus faecalis; conditions: resistant clone of E. faecalis 27159; ClpP D170→Y, oligomerisation sensor
Experimental: as §1, §2

E. faecalis RC5 = assay type: cell-based, Enterococcus faecalis; conditions: resistant clone of E. faecalis 27159; ClpP A180→V (C-terminus; α7)
Experimental: as §1, §2

E. faecalis RC7 = assay type: cell-based, Enterococcus faecalis; conditions: resistant clone of E. faecalis 27159; ClpP G68→D (ClpP core)
Experimental: as §1, §2

E. faecalis RC1 = assay type: cell-based, Enterococcus faecalis; conditions: resistant clone of E. faecalis 27159; ClpP G100→STOP (A96→V; M99→Y), premature stop
Experimental: as §1, §2

E. faecalis RC3 = assay type: cell-based, Enterococcus faecalis; conditions: resistant clone of E. faecalis 27159; ClpP G74→D (ClpP core; α3)
Experimental: as §1, §2

E. faecalis RC2 = assay type: cell-based, Enterococcus faecalis; conditions: resistant clone of E. faecalis 27159; ClpP H123→Q, active site
Experimental: as §1, §2

E. faecalis RC4 = assay type: cell-based, Enterococcus faecalis; conditions: resistant clone of E. faecalis 27159; ClpP S43→STOP, premature stop
Experimental: as §1, §2

[3] = test system: B. subtilis, Enterococcus faecium, E. faecalis, S. pneumoniae, and Streptococcus pyogenes; assay: Spontaneous resistance frequency, further Firmicutes; assay type: cell-based; conditions: same range as the S. aureus resistance rates (10^−6)
Experimental: as §2

S. pyogenes RC1 = assay type: cell-based, Streptococcus pyogenes; conditions: resistant clone of S. pyogenes Wacker; Y insertion after N40 (ClpP core; α2)
Experimental: as §1
as §2, with “Resistant colonies were counted after 24 h at 37 °C and colonies were randomly chosen for MIC determinations and sequencing.” left out

S. pyogenes RC2 = assay type: cell-based, Streptococcus pyogenes; conditions: resistant clone of S. pyogenes Wacker; ClpP L46→P (ClpP core; α2)
Experimental: as §1
as §2, with “Resistant colonies were counted after 24 h at 37 °C and colonies were randomly chosen for MIC determinations and sequencing.” left out

B. subtilis 168 = assay: microbe, parasite or virus in culture; assay type: cell-based, Bacillus subtilis; conditions: broth microdilution, Mueller-Hinton broth (without cation adjustment), CLSI, inoculum 5×10^4 CFU mL^−1, wild type
Experimental: as §1

E. faecalis ATCC 29212 = assay: microbe, parasite or virus in culture; assay type: cell-based, Enterococcus faecalis; conditions: broth microdilution, Mueller-Hinton broth (without cation adjustment), CLSI, inoculum 5×10^4 CFU mL^−1, wild type
Experimental: as §1

[4] = Stability of dissolved compound; assay type: physicochemical; conditions: dissolved in DMSO; reason for fresh dissolution before MIC determination
Experimental: as §1

S. pneumoniae G9A = assay type: cell-based, Streptococcus pneumoniae; conditions: broth microdilution, Mueller-Hinton broth; wildtype
Experimental: as §1

S. aureus ATCC 29213 [5] = assay: Spontaneous resistance rate on ADEP-containing agar; assay type: cell-based, Staphylococcus aureus; conditions: ADEP exposure 4× MIC in Mueller-Hinton agar; 5×10^6 cells plated, colonies counted after 24 h at 37 °C
Experimental: as §2

S. aureus 133 [6] = assay: as above; assay type: cell-based, Staphylococcus aureus; conditions: ADEP exposure 4× MIC in Mueller-Hinton agar; 5×10^6 cells plated, colonies counted after 24 h at 37 °C
Experimental: as §2

S. aureus = assay: MIC against S. aureus, summary of Table 1; assay type: cell-based, Staphylococcus aureus; conditions: text summary of Table 1, strain not named
Experimental: as §1

For `C/C=C/C=C/C=C/C(=O)N[C@@H](Cc1ccccc1)C(=O)N[C@H]1COC(=O)[C@@H]2C[C@@H](C)CN2C(=O)[C@H](C)NC(=O)[C@H](C)N(C)C(=O)[C@@H]2CCCN2C1=O` [ADEP1] ({Octatrienoyl(2E,4E,6E)}-FSP[NMeA]A[Pro(4R-Me)]; ester 2-C), the MIC (S. aureus ATCC 29213 [1]) was 1 µg/mL (≈ 1.39 µM), the MIC (S. aureus 133 [2]) was 0.5 µg/mL (≈ 0.696 µM) and the MIC (B. subtilis RC14) was 0.5 µg/mL (≈ 0.696 µM). It also gave an MIC (B. subtilis RC19) greater than 64 µg/mL, an MIC (B. subtilis RC16) of 8 µg/mL (≈ 11.1 µM) and an MIC (B. subtilis RC15) greater than 64 µg/mL. The MIC (B. subtilis RC18) was 16 µg/mL (≈ 22.3 µM), the MIC (B. subtilis RC17) was greater than 64 µg/mL and the MIC (B. subtilis RC13) was greater than 64 µg/mL. The MIC (S. pneumoniae RC2) was greater than 32 µg/mL, the MIC (S. pneumoniae RC1) was greater than 32 µg/mL and the MIC (S. pneumoniae RC3) was greater than 32 µg/mL. It also gave an MIC (S. pyogenes Wacker) of 0.12 µg/mL (≈ 0.167 µM), an MIC (E. faecalis 27159) of 0.12 µg/mL (≈ 0.167 µM) and an MIC (E. faecalis RC6) greater than 64 µg/mL. For the same molecule, the MIC (E. faecalis RC8) was greater than 64 µg/mL, the MIC (E. faecalis RC5) was greater than 64 µg/mL and the MIC (E. faecalis RC7) was greater than 64 µg/mL. For the same molecule, the MIC (E. faecalis RC1) was greater than 64 µg/mL, the MIC (E. faecalis RC3) was greater than 64 µg/mL and the MIC (E. faecalis RC2) was greater than 64 µg/mL. The MIC (E. faecalis RC4) was greater than 64 µg/mL, the spontaneous resistance frequencies [3] was “in the same range” and the MIC (S. pyogenes RC1) was greater than 32 µg/mL. It also gave an MIC (S. pyogenes RC2) greater than 32 µg/mL, an MIC (B. subtilis 168) of 0.063 µg/mL (≈ 0.0876 µM) and an MIC (E. faecalis ATCC 29212) of 0.063 µg/mL (≈ 0.0876 µM). For the same molecule, the stability [4] was “rather unstable” and the MIC (S. pneumoniae G9A) was 0.12 µg/mL (≈ 0.167 µM).
With `CCC/C=C/C(=O)N[C@@H](Cc1ccccc1)C(=O)N[C@H]1COC(=O)[C@@H]2CCCN2C(=O)[C@H](C)NC(=O)[C@H](C)N(C)C(=O)[C@@H]2CCCN2C1=O` [ADEP7] (X1-FSP[NMeA]AP; ester 2-C) the Resistance rate (S. aureus ATCC 29213 [5]) was 6×10^−7, the Resistance rate (S. aureus 133 [6]) was 4×10^−6 and the MIC (S. aureus 133 [2]) was 4 µg/mL (≈ 5.88 µM). For the same molecule, the MIC (B. subtilis 168) was 0.5 µg/mL (≈ 0.734 µM), the MIC (E. faecalis ATCC 29212) was 2 µg/mL (≈ 2.94 µM) and the “minimal inhibitory concentration (MIC) against S. aureus” value (S. aureus) was 8 µg/mL (≈ 11.8 µM).
For `C[C@H]1c2cccc(O)c2C(=O)C2=C(O)[C@]3(O)C(=O)C(C(N)=O)=C(O)[C@@H](N(C)C)[C@@H]3[C@@H](O)[C@@H]21` [Doxycycline, reference compound], the MIC (S. aureus ATCC 29213 [1]; Staphylococcus aureus, ATCC29213, read-out: MIC) was 0.06 µg/mL (≈ 0.135 µM), the MIC (S. aureus 133 [2]; Staphylococcus aureus, 133, read-out: MIC) was 0.06 µg/mL (≈ 0.135 µM) and the MIC (B. subtilis 168; Bacillus subtilis, 168, read-out: MIC) was 0.125 µg/mL (≈ 0.281 µM). For the same molecule, the MIC (E. faecalis ATCC 29212; Enterococcus faecalis, ATCC29212, read-out: MIC) was 4 to 8 µg/mL (≈ 9 to 18 µM).
